Test system: 926638-142-R-J1-PDC complex spheroid viability
Assay: Anticancer human tumor 926638-142-R-J1-PDC patient-derived endometrial carcinoma cell line growth inhibition [POLQ]
Details: for IC50: curve of first compound; for viability, T/C: stronger effect = lower value
Summary of the method: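 PDC + HUVEC + MSC complex spheroids; POLQ inhibitors ± partner drugs; top conc. at/near clinical Cmax, else 10 microM (SN-38 1 microM), half-log dilutions; 37 degrees C, 5% CO2.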

[1] = second compound 0.0316 µM, first compound 0.0316 µM
[2] = second compound 0.0316 µM, first compound 0.1 µM
[3] = second compound 0.0316 µM, first compound 0.316 µM
[4] = second compound 0.0316 µM, first compound 1 µM
[5] = second compound 0.0316 µM, first compound 3.16 µM
[6] = second compound 0.0316 µM, first compound 10 µM
[7] = second compound 0.1 µM, first compound 0.0316 µM
[8] = second compound 0.1 µM, first compound 0.1 µM
[9] = second compound 0.1 µM, first compound 0.316 µM
[10] = second compound 0.1 µM, first compound 1 µM
[11] = second compound 0.1 µM, first compound 3.16 µM
[12] = second compound 0.1 µM, first compound 10 µM
[13] = second compound 0.316 µM, first compound 0.0316 µM
[14] = second compound 0.316 µM, first compound 0.1 µM
[15] = second compound 0.316 µM, first compound 0.316 µM
[16] = second compound 0.316 µM, first compound 1 µM
[17] = second compound 0.316 µM, first compound 3.16 µM
[18] = second compound 0.316 µM, first compound 10 µM
[19] = second compound 1 µM, first compound 0.0316 µM
[20] = second compound 1 µM, first compound 0.1 µM
[21] = second compound 1 µM, first compound 0.316 µM
[22] = second compound 1 µM, first compound 1 µM
[23] = second compound 1 µM, first compound 3.16 µM
[24] = second compound 1 µM, first compound 10 µM
[25] = second compound 3.16 µM, first compound 0.0316 µM
[26] = second compound 3.16 µM, first compound 0.1 µM
[27] = second compound 3.16 µM, first compound 0.316 µM
[28] = second compound 3.16 µM, first compound 1 µM
[29] = second compound 3.16 µM, first compound 3.16 µM
[30] = second compound 3.16 µM, first compound 10 µM
[31] = second compound 10 µM, first compound 0.0316 µM
[32] = second compound 10 µM, first compound 0.1 µM
[33] = second compound 10 µM, first compound 0.316 µM
[34] = second compound 10 µM, first compound 1 µM
[35] = second compound 10 µM, first compound 3.16 µM
[36] = second compound 10 µM, first compound 10 µM
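Also: spheroids exposed to drugs for one week before readout.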
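For viability, T/C in this document: percent viability relative to DMSO vehicle control wells set as 100%.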

C=CC(=O)N1CCN(c2nc(=O)n(-c3c(C)ccnc3C(C)C)c3nc(-c4c(O)cccc4F)c(F)cc23)C(C)C1 (stereo not drawn) + Cc1cccc(N(C)C(=O)C2C(O)CCN2c2nc(C)cc(C(F)(F)F)c2C#N)c1
IC50 (second compound 0.0316 µM): > 10000 nM
IC50 (second compound 0.1 µM): > 10000 nM
IC50 (second compound 0.316 µM): > 10000 nM
IC50 (second compound 1 µM): > 10000 nM
IC50 (second compound 3.16 µM): 6590 nM
IC50 (second compound 10 µM): > 10000 nM
viability, T/C [1]: 84.5%
viability, T/C [2]: 78%
viability, T/C [3]: 67.2%
viability, T/C [4]: 76.1%
viability, T/C [5]: 66%
viability, T/C [6]: 59.1%
viability, T/C [7]: 82.8%
viability, T/C [8]: 78.7%
viability, T/C [9]: 94%
viability, T/C [10]: 76.6%
viability, T/C [11]: 70.8%
viability, T/C [12]: 65.5%
viability, T/C [13]: 97.4%
viability, T/C [14]: 90.3%
viability, T/C [15]: 91.5%
viability, T/C [16]: 74.2%
viability, T/C [17]: 70%
viability, T/C [18]: 55.6%
viability, T/C [19]: 74.8%
viability, T/C [20]: 84.7%
viability, T/C [21]: 79.2%
viability, T/C [22]: 69.9%
viability, T/C [23]: 72.7%
viability, T/C [24]: 49.6%
viability, T/C [25]: 91.8%
viability, T/C [26]: 82.7%
viability, T/C [27]: 84.7%
viability, T/C [28]: 86%
viability, T/C [29]: 74.1%
viability, T/C [30]: 36.1%
viability, T/C [31]: 90.7%
viability, T/C [32]: 80.8%
viability, T/C [33]: 94.9%
viability, T/C [34]: 77%
viability, T/C [35]: 78%
viability, T/C [36]: 52.9%

CC(C)n1c(=O)n(C)c2cnc3cc(F)c(-c4ccc(OCCCN5CCCCC5)nc4)cc3c21 + Cc1cccc(N(C)C(=O)C2C(O)CCN2c2nc(C)cc(C(F)(F)F)c2C#N)c1
IC50 (second compound 0.0316 µM): > 10000 nM
IC50 (second compound 0.1 µM): > 10000 nM
IC50 (second compound 0.316 µM): > 10000 nM
IC50 (second compound 1 µM): > 10000 nM
IC50 (second compound 3.16 µM): > 10000 nM
IC50 (second compound 10 µM): 9830 nM
viability, T/C [1]: 86.5%
viability, T/C [2]: 88.5%
viability, T/C [3]: 87.6%
viability, T/C [4]: 88.9%
viability, T/C [5]: 94.1%
viability, T/C [6]: 62.1%
viability, T/C [7]: 94.6%
viability, T/C [8]: 81.8%
viability, T/C [9]: 103%
viability, T/C [10]: 86.7%
viability, T/C [11]: 79.5%
viability, T/C [12]: 50.9%
viability, T/C [13]: 104%
viability, T/C [14]: 123%
viability, T/C [15]: 89.7%
viability, T/C [16]: 102%
viability, T/C [17]: 93.7%
viability, T/C [18]: 52.3%
viability, T/C [19]: 92.8%
viability, T/C [20]: 88.9%
viability, T/C [21]: 78.5%
viability, T/C [22]: 102%
viability, T/C [23]: 107%
viability, T/C [24]: 72.3%
viability, T/C [25]: 89.5%
viability, T/C [26]: 95.8%
viability, T/C [27]: 92%
viability, T/C [28]: 104%
viability, T/C [29]: 74%
viability, T/C [30]: 65.2%
viability, T/C [31]: 103%
viability, T/C [32]: 89.2%
viability, T/C [33]: 107%
viability, T/C [34]: 87%
viability, T/C [35]: 76.1%
viability, T/C [36]: 49.1%

CC1COCCN1c1cc(-c2ccnn2C)c2ccnc(-c3ccn[nH]3)c2n1 (stereo not drawn) + Cc1cccc(N(C)C(=O)C2C(O)CCN2c2nc(C)cc(C(F)(F)F)c2C#N)c1
IC50 (second compound 0.0316 µM): 388 nM
IC50 (second compound 0.1 µM): 340 nM
IC50 (second compound 0.316 µM): 298 nM
IC50 (second compound 1 µM): 414 nM
IC50 (second compound 3.16 µM): 433 nM
IC50 (second compound 10 µM): 313 nM
viability, T/C [1]: 94.8%
viability, T/C [2]: 75.6%
viability, T/C [3]: 58%
viability, T/C [4]: 27.5%
viability, T/C [5]: 12.6%
viability, T/C [6]: 8.02%
viability, T/C [7]: 106%
viability, T/C [8]: 81.6%
viability, T/C [9]: 51.1%
viability, T/C [10]: 28%
viability, T/C [11]: 12.6%
viability, T/C [12]: 7.36%
viability, T/C [13]: 106%
viability, T/C [14]: 76.7%
viability, T/C [15]: 52.3%
viability, T/C [16]: 23.1%
viability, T/C [17]: 12.2%
viability, T/C [18]: 10.2%
viability, T/C [19]: 83.7%
viability, T/C [20]: 99.3%
viability, T/C [21]: 56.1%
viability, T/C [22]: 24.1%
viability, T/C [23]: 12.2%
viability, T/C [24]: 8.86%
viability, T/C [25]: 73.2%
viability, T/C [26]: 77.7%
viability, T/C [27]: 53.8%
viability, T/C [28]: 32.8%
viability, T/C [29]: 10.1%
viability, T/C [30]: 6.72%
viability, T/C [31]: 90.7%
viability, T/C [32]: 76.5%
viability, T/C [33]: 50.2%
viability, T/C [34]: 23.3%
viability, T/C [35]: 10.8%
viability, T/C [36]: 7.42%

CCc1cc2c(N3CCc4c(cc(Cn5ccnc5)cc4-c4cn(C)nc4C(F)(F)F)C3=O)cc(C)nc2c(OC)n1 + Cc1cccc(N(C)C(=O)C2C(O)CCN2c2nc(C)cc(C(F)(F)F)c2C#N)c1
IC50 (second compound 0.0316 µM): 397 nM
IC50 (second compound 0.1 µM): 658 nM
IC50 (second compound 0.316 µM): 700 nM
IC50 (second compound 1 µM): 554 nM
IC50 (second compound 3.16 µM): 467 nM
IC50 (second compound 10 µM): 257 nM
viability, T/C [1]: 77.9%
viability, T/C [2]: 72%
viability, T/C [3]: 45.9%
viability, T/C [4]: 44.4%
viability, T/C [5]: 31.8%
viability, T/C [6]: 26.9%
viability, T/C [7]: 90.2%
viability, T/C [8]: 71%
viability, T/C [9]: 59.3%
viability, T/C [10]: 44%
viability, T/C [11]: 38.1%
viability, T/C [12]: 31.4%
viability, T/C [13]: 94.8%
viability, T/C [14]: 65.3%
viability, T/C [15]: 56.3%
viability, T/C [16]: 48.4%
viability, T/C [17]: 43.2%
viability, T/C [18]: 22.5%
viability, T/C [19]: 69%
viability, T/C [20]: 80.6%
viability, T/C [21]: 58.1%
viability, T/C [22]: 39.8%
viability, T/C [23]: 34.2%
viability, T/C [24]: 26.6%
viability, T/C [25]: 91.9%
viability, T/C [26]: 66.2%
viability, T/C [27]: 56.4%
viability, T/C [28]: 38%
viability, T/C [29]: 44%
viability, T/C [30]: 27.1%
viability, T/C [31]: 66.5%
viability, T/C [32]: 64.7%
viability, T/C [33]: 45.1%
viability, T/C [34]: 37.1%
viability, T/C [35]: 36%
viability, T/C [36]: 26.8%

— PubChem BioAssay AID1963826 (Molecular Pharmacology Branch, DTP, NCI, 2024)
